We go through 38 molecules from patent US6403574B1, “Azetidinecarboxamide derivatives for treating CNS disorders” (Vernalis Research Limited, priority 1998, dated 2002).

Data set [1] deals with 3-MPA-induced seizures in T/O strain mice. Kind of data set: Antagonism of 3-MPA-induced seizures. Type of data set: in vivo, mouse. The note with it: test drug 30 mg/kg p.o. 60 min before 3-MPA i.v. As to the method: Antagonism of 3-MPA-Induced Seizures Several animal seizure models are available for the screening and characterisation of anticonvulsant (antiepileptic) drugs. Most models employ a chemical convulsant to induce seizures and the anticonvulsant potencies of novel compounds are measured in terms of their ability to increase the dose of convulsant required to induce a seizure response (or to prolong the latency to seizure onset following a bolus dose of the convulsant). Most chemical convulsants work by blocking the neurotransmitter function of gamma-aminobutyric acid (GABA), the predominant inhibitory neurotransmitter in the mammalian brain. This can be achieved by blocking the postsynaptic action of GABA using pentylenetetrazol or bicuculline, or via a presynaptic action using a GABA synthesis inhibitor to decrease GABA release into the synapse. In this case, the inhibitor of glutamate decarboxylase (GAD), 3-mercaptopropionic acid (3-MPA), was used as the convulsant challenge agent. […] Male albino T/O strain mice (obtained from Tuck) weighing 28-40 g were used in these studies. Animals were assigned randomly to treatment groups and vehicle or test drug (at a dose of 30 mg/kg) were administered p.o. to groups of 12 animals 60 min before the administration of a bolus dose of 3-MPA intravenously. Immediately following 3-MPA administration, each mouse was placed individually into a cage for observation. The seizure response of each animal was scored quantally as present or absent (response or non-response) during the 5 min period immediately following 3-MPA administration. A seizure response was defined as the onset of the initial clonic phase of the seizure (abrupt loss of righting reflex accompanied by vocalisation). The seizure threshold (in terms of mg/kg i.v. of 3-MPA required to evoke a seizure response) was determined in each treatment group by a sequential up/down method followed by modified probit analysis of the quantal data. A range of doses of 3-MPA was prepared (12.5-200.0 mg/kg i.v.) increasing by a constant geometric factor […], which was found in pilot studies to generate suitable data for analysis by this method. In these studies, 3-MPA was obtained from Sigma. Test compounds were prepared as solutions dissolved in 45% w/v aqueous 2-hydroxypropyl-β-cyclodextrin. 3-MPA was dissolved in isotonic saline and its pH adjusted to 6 using 1M sodium hydroxide solution. Drugs were administered in a dose volume of 10 ml/kg body weight. SC=seizure threshold after treatment with test drug SV=seizure threshold in vehicle treated group

The subject of data set [2] is elevated zero-maze model of anxiety. Kind of data set: Anxiolytic activity in the elevated zero-maze model. The note with it: dose of 30 mg/Kg, orally 1 hour prior to zero-maze testing. Type of data set: in vivo, rat. An excerpt:
Measurement of Anxiolytic Activity in Mice Using the Elevated Zero-maze Model
Food and water are made freely available.
The maze is cleaned with a 5% methanol/water solution and dried thoroughly between test sessions.

Data set [3] addresses GABAA receptor. Kind of data set: Binding affinity to the GABAA receptor with [35S]-TBPS. The note with it: membranes from rat fore-brain; [35S]-TBPS 1 nM; read-out: IC50, concentration required to displace 50% of the specific [35S]-TBPS binding. As to the method:
Measurement of Binding Affinity to the GABAA Receptor with [^35S]-TBPS
The ability of test compounds to bind to the GABAA receptor was measured in membranes prepared from rat fore-brain using the procedure described by Green et al (Green, A. R., Misra, A., Murray, T. K., Snape, M. F. & Cross, A. J. Neurophamacology, 1996, 35, 1243-1250).
Binding assays were performed in plastic microtitre plates. In each study total assay volume contained [^35S]-TBPS (1 nM final concentration), membrane preparation and displacing drugs where appropriate. Drug solutions were prepared at a concentration of 10 mM in an appropriate solvent (EtOH, DMSO or H2O) and then diluted with assay buffer. Non-specific binding was determined using GABA. The free ligand concentration was determined by counting aliquots of the [^35S]-TBPS solution. The concentration of test compounds required to displace 50% of the specific binding (IC50) was determined from displacement curves.

Consider `C=CCNC(=O)N1CC(OCc2ccc(Cl)cc2)C1` [Example 1, 3-(4-Chlorobenzyloxy)-N-(2-propenyl)azetidine-1-carboxamide], for which the melting point (usually the temperature, or range, at which the solid turns liquid) was 110 to 111 °C. Moreover, in data set [1], the “SC = seizure threshold after treatment with test drug” value (“SC = seizure threshold” for short) is listed as 35.98 mg/kg i.v. of 3-MPA. Also, the “Anxiolytic activity (increase in the frequency of head dips)” value in data set [2] is reported as “effective”. Turning to `C=CCNC(=O)N1CC(OCc2ccc(Cl)c(Cl)c2)C1` [Example 2, 3-(3,4-Dichlorobenzyloxy)-N-(2-propenyl)azetidine-1-carboxamide], the melting point lay within 88 to 89 °C. Further, in data set [3], the IC50 came to 56 µM. In data set [1], the “SC = seizure threshold” value is given as 66.7 mg/kg i.v. of 3-MPA. For the molecule `C=CCNC(=O)N1CC(OCc2cccc(C(F)(F)F)c2)C1` [Example 3, 3-(3-(Trifluoromethyl)benzyloxy)-N-(2-propenyl)azetidine-1-carboxamide], the melting point is 108 °C. Besides, the IC50 in data set [3] was 87 µM. Moreover, the “SC = seizure threshold” value in data set [1] is given as 129.3 mg/kg i.v. of 3-MPA. Taken in the same sequence, the figures for `C=CCNC(=O)N1CC(OCc2ccc(C(F)(F)F)cc2)C1` [Example 4, 3-(4-(Trifluoromethyl)benzyloxy)-N-(2-propenyl)azetidine-1-carboxamide] were 120 °C, 91 µM and 75.7 mg/kg i.v. of 3-MPA. Regarding `C=CCNC(=O)N1CC(OCc2ccc(F)cc2)C1` [Example 5, 3-(4-Fluorobenzyloxy)-N-(2-propenyl)azetidine-1-carboxamide], the “SC = seizure threshold” value in data set [1] was 42.8 mg/kg i.v. of 3-MPA. On to `C=CCNC(=O)N1CC(OC(c2ccc(Cl)cc2)c2ccc(Cl)cc2)C1` [Example 6, 3-(Bis(4-chlorophenyl)methoxy)-N-(2-propenyl)azetidine-1-carboxamide], for which the IC50 in data set [3] worked out at 64 µM. Still for that read-out and setting: the value for `C[C@@H](O)CNC(=O)N1CC(OC(c2ccc(Cl)cc2)c2ccc(Cl)cc2)C1` [Example 7, (R)-3-(Bis(4-chlorophenyl)methoxy)-N-(2-hydroxypropyl)azetidine-1-carboxamide] was 32 µM. The molecule `C=CCNC(=O)N1CC(OCc2ccc(C#N)cc2)C1` [Example 10] gave a melting point of 95 to 96 °C. Take `C=CCNC(=O)N1CC(OCc2ccc(-c3ccccc3)cc2)C1` [Example 11]: the melting point was 160 °C. On the same count and under the same terms, the value for `C=CCNC(=O)N1CC(OCc2ccc3ccccc3c2)C1` [Example 12] was 141 to 142 °C; that for `CCCNC(=O)N1CC(OCc2ccc(Cl)c(Cl)c2)C1` [Example 13] was 89 to 90 °C. The same measure, in the same setting: the value for `C=CCNC(=O)N1CC(OCc2cccc(Cl)c2)C1` [Example 14] was 67 to 68 °C. On the same count and under the same terms, the value for `C=CCNC(=O)N1CC(OCc2cccc(F)c2)C1` [Example 15] was 59 to 60 °C; that for `CCCNC(=O)N1CC(OCc2ccc(C(F)(F)F)cc2)C1` [Example 16] was 128 to 129 °C. Molecule `CCCNC(=O)N1CC(OCc2cccc(C(F)(F)F)c2)C1` [Example 17] yielded a melting point of 62 to 63 °C. Same read-out and setting: then `C[C@H](O)CNC(=O)N1CC(OCc2cccc(C(F)(F)F)c2)C1` [Example 18], with 67 to 68 °C; and `C[C@@H](O)CNC(=O)N1CC(OCc2cccc(C(F)(F)F)c2)C1` [Example 19], with 67 to 68 °C. On the same count and under the same terms, then `C[C@@H](O)CNC(=O)N1CC(OCc2ccc(C(F)(F)F)cc2)C1` [Example 20], with 97 to 98 °C; and `C[C@H](O)CNC(=O)N1CC(OCc2ccc(C(F)(F)F)cc2)C1` [Example 21], with 97 to 98 °C.

In the case of `C[C@@H](O)CNC(=O)N1CC(OCc2ccc(Cl)c(Cl)c2)C1` [Example 22], the melting point was in the range of 88 to 89 °C. `C[C@H](O)CNC(=O)N1CC(OCc2ccc(Cl)c(Cl)c2)C1` [Example 23] gave a melting point of 88 to 89 °C. `C[C@H](O)CNC(=O)N1CC(OCc2ccc(Cl)cc2)C1` [Example 24] had a melting point of 85 to 86 °C. Still for that read-out and setting: then `C#CCNC(=O)N1CC(OCc2cccc(C(F)(F)F)c2)C1` [Example 25], with 90 to 91 °C; and `C=CCNC(=O)N1CC(OCc2ccccc2)C1` [Example 26], with 76 to 77 °C. The same measure, in the same setting: the value for `C[C@H](O)CNC(=O)N1CC(OCc2ccc(F)cc2)C1` [Example 27] was 73 to 74 °C; that for `C=CCNC(=O)N1CC(OCc2ccccc2C(F)(F)F)C1` [Example 28] was 63 °C; that for `C=CCNC(=O)N1CC(OCc2cc(F)ccc2F)C1` [Example 29] was 75 °C.

As to `C=CCNC(=O)N1CC(OCc2ccc(Cl)cc2Cl)C1` [Example 30], the melting point was 100 °C. In the case of `C=CCNC(=O)N1CC(OCc2cc(F)cc(F)c2)C1` [Example 31], the melting point came out at 79 °C. Still for that read-out and setting: the value for `C=CCNC(=O)N1CC(OCc2ccc(F)c(F)c2)C1` [Example 33] was 82.5 to 85 °C. The same measure, in the same setting: then `C=CCNC(=O)N1CC(OCc2ccc(F)cc2F)C1` [Example 34], with 91 to 92.5 °C. In turn, `C=CCNC(=O)N1CC(OCc2cc(C(F)(F)F)cc(C(F)(F)F)c2)C1` [Example 35] came in with a melting point of 80.5 to 81.5 °C. On the same count and under the same terms, then `C[C@H](O)CNC(=O)N1CC(OCc2ccc(Cl)cc2)C1` [Example 36], with 76 to 78 °C. `C#CCNC(=O)N1CC(OCc2ccc(Cl)cc2)C1` [Example 37] gave a melting point of 123 to 124 °C.

As to `C#CCNC(=O)N1CC(OCc2ccc(C(C)(C)C)cc2)C1` [Example 38], the melting point lay within 94 to 96 °C.

`C[C@@H](O)CNC(=O)N1CC(OCc2ccc(F)cc2)C1` [Example 40] came in with a melting point of 72 to 73 °C.

Take `C=CCNC(=O)N1CC(OCc2ccc(C(C)(C)C)cc2)C1` [Example 41]: the melting point was in the range of 79 to 80 °C. With `C#CCNC(=O)N1CC(OCc2ccc(F)cc2)C1` [Example 43], the melting point lay within 94 to 96 °C.
